Measured values: patent US20250205342A1, “IRAK DEGRADERS AND USES THEREOF” (Kymera Therapeutics, Inc., priority 2022, published 2025)

Key:
[1] = molecular target: T1, IRAK4 (Homo sapiens, UniProt Q9NWZ3); assay: hPBMC IRAK4 degradation flow assay (monocytes); type: cell-based; set-up: endogenous in cells; host or cells: human PBMCs (monocytes, CD14 positive gate); conditions: CD14 positive monocytes, 20 h, read-out: hPBMC monocyte DC50 at 20 h
T1 sequence (Q9NWZ3 1-460): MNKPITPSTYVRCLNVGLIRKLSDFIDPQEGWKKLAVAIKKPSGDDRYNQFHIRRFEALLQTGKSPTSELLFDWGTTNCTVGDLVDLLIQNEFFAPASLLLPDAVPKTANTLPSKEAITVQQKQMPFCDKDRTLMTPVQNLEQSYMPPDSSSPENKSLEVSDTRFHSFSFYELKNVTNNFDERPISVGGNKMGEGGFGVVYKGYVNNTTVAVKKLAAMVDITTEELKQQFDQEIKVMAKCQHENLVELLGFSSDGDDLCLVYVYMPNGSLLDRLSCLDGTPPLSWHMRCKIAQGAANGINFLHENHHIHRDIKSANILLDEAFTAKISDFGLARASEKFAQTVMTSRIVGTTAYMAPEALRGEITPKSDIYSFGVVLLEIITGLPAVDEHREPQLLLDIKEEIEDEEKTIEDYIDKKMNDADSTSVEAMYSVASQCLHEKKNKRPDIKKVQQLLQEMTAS
Outline: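 Thawed human PBMCs treated 20 h (or 4 h) at 37° C. with 10-point 5-fold compound dilutions, 0.1% DMSO, then fixed, methanol-permeabilized and stained for IRAK4 and lineage markers by flow, with monocytes gated CD14+. IRAK4 MFI normalized to DMSO and 10 µM control; DC50 and max degradation from 4-parameter logistic fit.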

[2] = molecular target: T1, IRAK4; assay: IRAK4 degradation in OCI-LY10 (MSD, Meso Scale Discovery); type: cell-based; set-up: endogenous in cells; host or cells: OCI-LY10; conditions: OCI-LY10 cells, 24 h
Outline: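 OCI-LY10 cells (300,000/well) were treated with an 8-point 1:3 series (top 1 to 10 μM) for 4 to 24 h at 37 °C. IRAK4 in RIPA lysates was quantified by MSD sandwich immunoassay with two anti-IRAK4 antibodies. DC50 was fitted with a three-parameter logistic equation.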

Structure (SMILES) | DC50 [1] [µM] | DC50 [2] [µM]
COc1cc2nn([C@H]3CC[C@H](CN4CCC(c5cncc(N6CCC[C@H](C(=O)Nc7ccc(=O)n(CC(=O)O)c7)C6)c5)CC4)CC3)cc2cc1NC(=O)c1cccc(C(F)(F)F)n1 [Compound I-10] | > 10 | > 10
COc1cc2nn([C@H]3CC[C@H](CNCCCCCCc4cncc(N5CCC[C@H](C(=O)Nc6ccc(=O)n(CC(=O)O)c6)C5)c4)CC3)cc2cc1NC(=O)c1cccc(C(F)(F)F)n1 [Compound I-24] | 0.1 to 1 | > 10
O=C(O)Cn1cc(NC(=O)[C@H]2CCCN(c3cncc(NCCNC[C@H]4CC[C@H](n5cc(NC(=O)c6cnn7ccc(N8C[C@H]9C[C@@H]8CO9)nc67)c(C(F)F)n5)CC4)c3)C2)ccc1=O [Compound I-8] | > 10 | > 10
O=C(O)Cn1cc(NC(=O)[C@H]2CCCN(c3cncc(OCCOCCOCCOCCOCCNC[C@H]4CC[C@H](n5cc(NC(=O)c6cnn7ccc(N8C[C@H]9C[C@@H]8CO9)nc67)c(C(F)F)n5)CC4)c3)C2)ccc1=O [Compound I-37] | 1 to 10 | > 10
COC(=O)Cn1cc(NC(=O)c2cccc(-c3cncc(CCCCCCCCCNC[C@H]4CC[C@H](n5cc6cc(NC(=O)c7cccc(C(F)(F)F)n7)c(C(C)(C)O)cc6n5)CC4)c3)c2)ccc1=O [Compound I-49] | 0.1 to 1 | 0.1 to 1
CC(C)(O)c1cc2nn([C@H]3CC[C@H](CNCCCc4cc(C(=O)Nc5ccc(=O)n(CC(=O)O)c5)cc(-c5cccnc5)c4)CC3)cc2cc1NC(=O)c1cccc(C(F)(F)F)n1 [Compound I-80] | > 10 | > 10
CC(C)(O)c1cc2nn([C@H]3CC[C@H](CNCCCCCCCCCn4ccc5c(C(=O)Nc6ccc(=O)n(CC(=O)O)c6)cccc54)CC3)cc2cc1NC(=O)c1cccc(C(F)(F)F)n1 [Compound I-68] | 1 to 10 | > 10
CCOC(=O)Cn1cc(NC(=O)[C@H]2CCCN(c3cncc(OCCNC[C@H]4CC[C@H](n5cc6cc(NC(=O)c7cccc(C(F)(F)F)n7)c(OC)cc6n5)CC4)c3)C2)ccc1=O [Compound I-33] | 1 to 10 | > 10
COc1cc(-c2ccc(F)c(CCCCCCCCCNC[C@H]3CC[C@H](n4cc(NC(=O)c5cnn6ccc(N7C[C@H]8C[C@@H]7CO8)nc56)c(C(F)F)n4)CC3)c2)ccc1C(=O)Nc1ccc(=O)n(CC(=O)O)c1 [Compound I-65] | > 10 | > 10
CC(C)(O)c1cc2nn([C@H]3CC[C@H](CNCCCCCCc4cc(C(=O)Nc5ccc(=O)n(CC(=O)O)c5)cc(-c5cccnc5)c4)CC3)cc2cc1NC(=O)c1cccc(C(F)(F)F)n1 [Compound I-96] | > 10 | > 10
COC(=O)Cn1cc(NC(=O)c2cccc(-c3cncc4cc(CCCCCCNC[C@H]5CC[C@H](n6cc7cc(NC(=O)c8cccc(C(F)(F)F)n8)c(C(C)(C)O)cc7n6)CC5)ccc34)c2)ccc1=O [Compound I-57] | 1 to 10 | 1 to 10
CC(C)(O)c1cc2nn([C@H]3CC[C@H](CNCCCCCCc4cccc5c(-c6cccc(C(=O)Nc7ccc(=O)n(CC(=O)O)c7)c6)cncc45)CC3)cc2cc1NC(=O)c1cccc(C(F)(F)F)n1 [Compound I-51] | > 10 | > 10
CCOC(=O)Cn1cc(NC(=O)c2cc(CCCCCCNC[C@H]3CC[C@H](n4cc5cc(NC(=O)c6cccc(C(F)(F)F)n6)c(C(C)(C)O)cc5n4)CC3)cc(-c3cccnc3)c2)ccc1=O [Compound I-95] | > 10 | > 10
CC(C)(O)c1cc2nn([C@H]3CC[C@H](CNCCCc4cncc(-c5cccc(C(=O)Nc6ccc(=O)n(CC(=O)O)c6)c5)c4)CC3)cc2cc1NC(=O)c1cccc(C(F)(F)F)n1 [Compound I-86] | > 10 | > 10
CCOC(=O)Cn1cc(NC(=O)[C@H]2CCCN(c3cncc(CCCCCCNC[C@H]4CC[C@H](n5cc6cc(NC(=O)c7cccc(C(F)(F)F)n7)c(OC)cc6n5)CC4)c3)C2)ccc1=O [Compound I-42] | < 0.1 | > 10
CC(C)(O)c1cc2nn([C@H]3CC[C@H](CNCCCn4ccc5c(C(=O)Nc6ccc(=O)n(CC(=O)O)c6)cccc54)CC3)cc2cc1NC(=O)c1cccc(C(F)(F)F)n1 [Compound I-78] | > 10 | > 10
CCOC(=O)Cn1cc(NC(=O)[C@H]2CCCN(c3cncc(C#CCOC4CCN(C[C@H]5CC[C@H](n6cc(NC(=O)c7cnn8ccc(N9C[C@H]%10C[C@@H]9CO%10)nc78)c(C(F)F)n6)CC5)CC4)c3)C2)ccc1=O [Compound I-23] | 1 to 10 | > 10
O=C(O)Cn1cc(NC(=O)[C@H]2CCCN(c3cncc(OCCCCNC[C@H]4CC[C@H](n5cc(NC(=O)c6cnn7ccc(N8C[C@H]9C[C@@H]8CO9)nc67)c(C(F)F)n5)CC4)c3)C2)ccc1=O [Compound I-46] | > 10 | > 10
O=C(O)Cn1cc(NC(=O)[C@H]2CCCN(c3cncc(CCNC[C@H]4CC[C@H](n5cc(NC(=O)c6cnn7ccc(N8C[C@H]9C[C@@H]8CO9)nc67)c(C(F)F)n5)CC4)c3)C2)ccc1=O [Compound I-28] | > 10 | > 10
CCOC(=O)Cn1cc(NC(=O)[C@H]2CCCN(c3cncc(C#CCOC4CCN(C[C@H]5CC[C@H](n6cc7cc(NC(=O)c8cccc(C(F)(F)F)n8)c(OC)cc7n6)CC5)CC4)c3)C2)ccc1=O [Compound I-22] | < 0.1 | > 10
CCOC(=O)Cn1cc(NC(=O)c2cccc(-c3cncc(CCCCCCNC[C@H]4CC[C@H](n5cc6cc(NC(=O)c7cccc(C(F)(F)F)n7)c(C(C)(C)O)cc6n5)CC4)c3)c2)ccc1=O [Compound I-97] | > 10 | 1 to 10
CCOC(=O)Cn1cc(NC(=O)c2cccc3c2ccn3CCCCCCCCCNC[C@H]2CC[C@H](n3cc4cc(NC(=O)c5cccc(C(F)(F)F)n5)c(C(C)(C)O)cc4n3)CC2)ccc1=O [Compound I-69] | 0.1 to 1 | 0.1 to 1
CCOC(=O)Cn1cc(NC(=O)c2cccc3c2ccn3CCCNC[C@H]2CC[C@H](n3cc(NC(=O)c4cnn5ccc(N6C[C@H]7C[C@@H]6CO7)nc45)c(C(F)F)n3)CC2)ccc1=O [Compound I-81] | > 10 | > 10
CCOC(=O)Cn1cc(NC(=O)c2cccc(-c3cncc(CCCNC[C@H]4CC[C@H](n5cc6cc(NC(=O)c7cccc(C(F)(F)F)n7)c(C(C)(C)O)cc6n5)CC4)c3)c2)ccc1=O [Compound I-90] | > 10 | > 10
O=C(O)Cn1cc(NC(=O)[C@H]2CCCN(c3cncc(NCCOCCOCCNC[C@H]4CC[C@H](n5cc(NC(=O)c6cnn7ccc(N8C[C@H]9C[C@@H]8CO9)nc67)c(C(F)F)n5)CC4)c3)C2)ccc1=O [Compound I-2] | > 10 | > 10
O=C(O)Cn1cc(NC(=O)c2cccc3c2ccn3CCCNC[C@H]2CC[C@H](n3cc(NC(=O)c4cnn5ccc(N6C[C@H]7C[C@@H]6CO7)nc45)c(C(F)F)n3)CC2)ccc1=O [Compound I-77] | > 10 | > 10
